Earlier results, collected in patent publication US11648207B1, “Extended release pharmaceutical composition of Clozapine” (priority 2021, dated 2023).

What was measured:
[1] = in vivo

CN1CCN(C2=Nc3cc(Cl)ccc3Nc3ccccc32)CC1 [Clozapine, 8-chloro-11-(4-methyl-1-piperazinyl)-5H-dibenzo[b,e][1,4]diazepine]
mean terminal half-life [1]: 12 h
solubility in water: very slightly soluble in water
